This is an account of results in patent US20240262803A1, “COMPOUNDS, COMPOSITIONS AND METHODS OF TREATING DISORDERS” (Chungdu Anticancer Bioscience Ltd, priority 2021, published 2024).

SMILES strings stand for the structures. Entries after “also recorded” stand apart in the source; their conditions may differ.

In assay [1] the test system is colon cancer cell line SW460. The assay is described as follows: MTT assay of cellular proliferation, SW460. The format is cell-based. Particulars: Homo sapiens, SW480; read-out: EC50: Concentration that inhibits 50% of proliferation. In outline: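 EC50 values come from optical density at 570 nm of solubilized MTT formazan, added for 3˜4 h after compound exposure. Cells in DMEM with 5% FBS were treated at 1 nM to 10 μM once 20˜30% confluent.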

Assay [2] concerns cervical cancer cell line Hela. The assay is described as follows: Soft agar colony formation assay, Hela. Format: cell-based, human. Conditions: 3D culture, FIG. 2. The method, then:
Six lung cancer cell lines (NCI-H23, NCI-H460, NCI-H596, NCI-H2170, Calu-6 and A549), two colon cancer cell lines (HCT116 and SW460), one breast cancer cell line MDA-MB-231, one gastric cancer cell line NCI-N87, one prostate cancer cell line DU145, one cervical cancer cell line Hela, and one glioblastoma cell line T98G were obtained from ATCC. The T2 HCC cell line was derived from a mouse liver cancer model initiated by a transgene of MYC (Reference). All cell lines were cultured in DMEM (Gibco, Cleveland, TN, USA) supplemented with 5% fetal bovine serum (Gibco), penicillin (100 U/mL)-streptomycin (100 μg/mL) (Gibco, Cat. No. 15140-122), 2 mM L-glutamine (Gibco, 200 mM solution, Cat. No. 25030081), and 1 mM sodium pyruvate (Gibco, 100 mM solution, Cat. No. 11360070) at 37° C. in a humidified incubator that was maintained at 5% CO2.
Measuring the ability of cells to grow in soft agar has been popularly believed as the gold standard assay for cellular transformation in vitro. In the Soft Agar Assay, cells grow from single cells to cell colonies in a semi-solid agar solution that keeps them away from the solid surface and allows growth in an anchorage-independent way.
The anchorage-independent growth of cells is one of the hallmarks of cancer cells. […] Cell culture medium was changed once every two days until colonies were ready to photograph. […]

`COC(=O)c1cc(OC)cc(Oc2ncccc2-c2ccnc(N)n2)c1` [Compound 23, Methyl 3-((3-(2-aminopyrimidin-4-yl)pyridin-2-yl)oxy)-5-methoxybenzoate]: the EC50 in assay [1] was 1 to 1000 nM.

As to `COC(=O)c1cc(Oc2ncccc2-c2ccncc2)cc(C(=O)OC)c1` [Compound 1, Dimethyl 5-([3,4′-bipyridin]-2-yloxy)isophthalate], in assay [2], the “anchorage-independent growth in soft agar” value was “Suppress the Anchorage-independent Growth; also recorded: effectively suppressed the anchorage-independent growth”. Consider `COC(=O)c1cc(Oc2ncccc2-c2ccnc(N)n2)cc(C(=O)OC)c1` [Compound 21, dimethyl 5-((3-(2-aminopyrimidin-4-yl)pyridin-2-yl)oxy)isophthalate], for which, in assay [2], the “anchorage-independent growth in soft agar” value is recorded as “Suppress the Anchorage-independent Growth; also recorded: effectively suppressed the anchorage-independent growth”. In the case of `COC(=O)c1cc(OC)cc(Oc2ncccc2-c2ccncc2)c1` [Compound 2, Methyl 3-([3,4′-bipyridin]-2-yloxy)-5-methoxybenzoate], the EC50 in assay [1] fell in the range of 1 to 1000 nM.
